Source: patent US12612380B2, “Non-lysosomal glucosylceramidase inhibitors and uses thereof” (ALECTOS THERAPEUTICS INC., priority 2019, dated 2026)
pIC50: −log10 of the molar value. Read-outs that look alike come from different tables or passages of the source.

Tests used:
GBA2 [1] = target: T1, GBA2 (Homo sapiens, UniProt Q9HCG7); assay: Determination of IC50 values for inhibition of GBA2 in cell lysate; type: biochemical; set-up: host or cells: HEK293T (lentiviral transduction, puromycin selection); used as cellular homogenate
T1 sequence (Q9HCG7 1-927): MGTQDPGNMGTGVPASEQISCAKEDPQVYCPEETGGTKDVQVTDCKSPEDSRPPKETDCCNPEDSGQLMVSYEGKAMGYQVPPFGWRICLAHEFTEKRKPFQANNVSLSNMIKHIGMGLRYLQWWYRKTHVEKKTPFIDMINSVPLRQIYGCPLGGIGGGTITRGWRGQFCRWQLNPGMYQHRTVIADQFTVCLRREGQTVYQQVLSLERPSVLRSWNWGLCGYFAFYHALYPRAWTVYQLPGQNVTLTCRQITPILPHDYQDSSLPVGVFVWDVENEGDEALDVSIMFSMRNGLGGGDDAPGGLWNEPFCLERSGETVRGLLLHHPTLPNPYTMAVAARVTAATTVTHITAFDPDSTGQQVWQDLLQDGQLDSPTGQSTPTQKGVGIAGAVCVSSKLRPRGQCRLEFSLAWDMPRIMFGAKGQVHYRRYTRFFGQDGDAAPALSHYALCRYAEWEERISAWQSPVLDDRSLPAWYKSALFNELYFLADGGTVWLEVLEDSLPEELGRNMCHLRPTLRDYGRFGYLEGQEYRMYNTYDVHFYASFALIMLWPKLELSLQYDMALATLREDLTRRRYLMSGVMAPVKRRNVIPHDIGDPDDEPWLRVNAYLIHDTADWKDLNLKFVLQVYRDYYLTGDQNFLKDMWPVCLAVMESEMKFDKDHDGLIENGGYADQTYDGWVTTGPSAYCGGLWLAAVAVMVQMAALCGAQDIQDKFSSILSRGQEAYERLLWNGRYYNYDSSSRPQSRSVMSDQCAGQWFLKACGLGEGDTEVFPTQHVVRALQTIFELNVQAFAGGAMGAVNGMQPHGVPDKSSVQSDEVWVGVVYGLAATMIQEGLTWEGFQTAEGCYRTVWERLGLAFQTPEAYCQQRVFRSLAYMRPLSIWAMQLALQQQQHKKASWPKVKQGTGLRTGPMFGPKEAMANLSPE
In short: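 Fluorogenic 4-MU-β-glucoside (250 μM) turnover over 20 min at 37 °C, pH 5.5, measured after NaOH/glycine stop (ex 365, em 450 nm). Enzyme source: lysate (0.083 mg/mL) of lentivirally transduced GBA2-HEK293T, GCase blocked by 20 μM azaspiro-octanediol; compound preincubated 5 min; IC50 = 50% inhibition concentration.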

GBA2 [2] = target: T1, GBA2; assay: Binding specificity (selectivity) for GBA2 over other enzymes; type: biochemical; settings: compared to a suitable reference compound, e.g. NB-DNJ (miglustat) or AMP-DNM
Description: In some embodiments, one or more of the compounds according to the invention may specifically bind a GBA2. In alternative embodiments, one or more of the compounds according to the invention may specifically bind the active site of a GBA2. […] In alternative embodiments, one or more of the compounds according to the invention may specifically bind the human non-lysosomal glucosylceramidase (GBA2) over the human lysosomal glucosylceramidase (GCase) and/or the human cytosolic glucosylceramidase (GBA3). In alternative embodiments, one or more of the compounds according to the invention may specifically bind the human non-lysosomal glucosylceramidase (GBA2) over the human glucosylceramide synthase (GCS). In alternative embodiments, one or more of the compounds according to the invention may specifically bind the human non-lysosomal glucosylceramidase (GBA2) over an intestinal alpha-glucosidase, where the intestinal alpha-glucosidase may be a sucrase-isomaltase or a maltase-glucoamylase.

[3] = Brain concentration when administered in vivo; settings: compared to a suitable reference compound, e.g. NB-DNJ (miglustat) or AMP-DNM
Description: Permeability can be assessed using a variety of standard experimental techniques, including without limitation in situ perfusion, ex vivo tissue diffusion, in vitro cell monolayers (e.g. Caco-2 cells, MDCK cells, LLC-PK1 cells), and artificial cell membranes (e.g. PAMPA assay); suitable techniques for measuring effective permeability (Peff) or apparent permeability (Papp) are reviewed for example by Volpe in The AAPS Journal, 2010, 12(4), 670-678. In some embodiments, one or more of the compounds according to the invention may show enhanced permeability when tested in one or more of these assays for determining Peff or Papp. […] In some embodiments, “enhanced permeability” means an increase in measured Peff or Papp by any value between about 10% and about 100%, or of any integer value between about 10% and about 100%, for example, about 10%, 20%, 30%, 40%, 50%, 60%, 70%, 80%, 90%, 100%, or over 100%, or an increase by about 1-fold, 2-fold, or 3-fold, or more, as compared to a suitable reference compound such as, for example, N-butyldeoxynojirimycin (NB-DNJ, miglustat) or N-(5-adamantane-1-yl-methoxy)pentyl)-deoxynojirimycin (AMP-DNM, Genz-529648). In some embodiments, “enhanced permeability” means a measurable Papp value (i.e. a value greater than zero) in a suitable assay to measure Papp using in vitro cell monolayers. In some embodiments, “enhanced permeability” means a Papp value greater than 2×10^−6 cm/s in a suitable assay to measure Papp using in vitro cell monolayers. In alternative embodiments, “enhanced permeability” means a Papp value in the range 2×10^−6 cm/s to 40×10^−6 cm/s in a suitable assay to measure Papp using in vitro cell monolayers. In some embodiments, “higher brain concentration” means an increase in measured brain concentration when the compound is administered in vivo by any value between about 10% and about 100%, or of any integer value between about 10% and about 100%, for example, about 10%, 20%, 30%, 40%, 50%, 60%, 70%, 80%, 90%, 100%, or over 100%, or an increase by about 1-fold, 2-fold, 3-fold, 4-fold, 5-fold, 10-fold, 20-fold, 30-fold, 40-fold, or 50-fold, or more, as compared to a suitable reference compound such as, for example, N-butyldeoxynojirimycin (NB-DNJ, miglustat) or N-(5-adamantane-1-yl-methoxy)pentyl)-deoxynojirimycin (AMP-DNM, Genz-529648).

[4] = cellular homogenate of HEK293T cells overexpressing human GBA2, 250 μM 4-methylumbelliferone-β-D glucopyranoside, pH 5.5, 37° C., GCase inhibitor present, read-out: GBA2 IC50

SMILES | binding specificity (IC50 or Ki of other molecule / GBA2) (GBA2 [2]) | pIC50 (GBA2 [1]; [4]) | pIC50 (GBA2 [1]) | brain concentration when administered in vivo [3]
C[C@@H]1[C@@H](O)[C@H](O)[C@@H](O)CN1CCc1ccc2c(c1)OCO2 [Example 70, (2R,3R,4R,5S)-1-(2-(benzo[d][1,3]dioxol-5-yl)ethyl)-2-methylpiperidine-3,4,5-triol] | enhanced binding specificity | – | > 7.00 | higher brain concentrations
C[C@@H]1[C@@H](O)[C@H](O)[C@@H](O)CN1CCc1cccc(Cl)c1F [Example 45, (2R,3R,4R,5S)-1-(3-chloro-2-fluorophenethyl)-2-methylpiperidine-3,4,5-triol] | enhanced binding specificity | – | > 7.00 | higher brain concentrations
CC(C)[C@H]1CC[C@@H](CN2C[C@H](O)[C@@H](O)[C@H](O)[C@H]2C)CC1 [Example 7, (2R,3R,4R,5S)-1-(((1s,4S)-4-isopropylcyclohexyl)methyl)-2-methylpiperidine-3,4,5-triol] | enhanced binding specificity | > 7.00 | – | higher brain concentrations
C[C@@H]1[C@@H](O)[C@H](O)[C@@H](O)CN1CCc1c(F)cc(OCC2CC2)cc1F [Example 60, (2R,3R,4R,5S)-1-(4-(cyclopropylmethoxy)-2,6-difluorophenethyl)-2-methylpiperidine-3,4,5-triol] | enhanced binding specificity | – | > 7.00 | –
C[C@@H]1[C@@H](O)[C@H](O)[C@@H](O)CN1CCc1c(F)ccc(Cl)c1F [Example 49, (2R,3R,4R,5S)-1-(3-chloro-2,6-difluorophenethyl)-2-methylpiperidine-3,4,5-triol] | enhanced binding specificity | – | > 7.00 | higher brain concentrations

Further lines, with some results ahead:

binding specificity (IC50 or Ki of other molecule / GBA2) (GBA2 [2]) | pIC50 (GBA2 [1]; [4]) | SMILES | pIC50 (GBA2 [1]) | brain concentration when administered in vivo [3]
– | > 7.00 | C[C@@H]1[C@@H](O)[C@H](O)[C@@H](O)CN1CC1CCN(c2ccc(F)cc2)CC1 [Example 85, (2R,3R,4R,5S)-1-((1-(4-fluorophenyl)piperidin-4-yl)methyl)-2-methylpiperidine-3,4,5-triol] | – | higher brain concentrations
enhanced binding specificity | > 7.00 | C[C@@H]1[C@@H](O)[C@H](O)[C@@H](O)CN1C[C@H]1CC[C@H](C(F)(F)F)CC1 [Example 12, (2R,3R,4R,5S)-2-methyl-1-(((1r,4R)-4-(trifluoromethyl)cyclohexyl)methyl)piperidine-3,4,5-triol] | – | higher brain concentrations
enhanced binding specificity | > 7.00 | O[C@H]1[C@H](O)[C@@H](O)CN(C[C@H]2CC[C@H](C(F)(F)F)CC2)[C@@H]1CF [Example 147, (2S,3R,4R,5S)-2-(fluoromethyl)-1-(((1r,4S)-4-(trifluoromethyl)cyclohexyl)methyl)piperidine-3,4,5-triol] | – | –
enhanced binding specificity | > 7.00 | C[C@@H]1[C@@H](O)[C@H](O)[C@@H](O)CN1C[C@H]1CC[C@@H](C(F)(F)F)CC1 [Example 11, (2R,3R,4R,5S)-2-methyl-1-(((1s,4S)-4-(trifluoromethyl)cyclohexyl)methyl)piperidine-3,4,5-triol] | – | –
enhanced binding specificity | > 7.00 | C[C@@H]1[C@@H](O)[C@H](O)[C@@H](O)CN1C[C@H]1CCN(c2ccccc2C(F)(F)F)C1 [Example 115, (2R,3R,4R,5S)-2-methyl-1-(((R)-1-(2-(trifluoromethyl)phenyl)pyrrolidin-3-yl)methyl)piperidine-3,4,5-triol] | – | –
